Results taken from patent publication US11390637B2, “Salts of antiviral phosphonate analogues and process for preparation thereof” (CIPLA LIMITED, priority 2017, dated 2022).

Experiments:
[1] = In-vitro intrinsic dissolution of 200 mg pellets of API without excipients; type: physicochemical; conditions: Table 8, 200 mg pellet, 0.01N HCl, 37° C., paddle 75 rpm
Procedure: A tableting mixture (200 mg) comprising solely salts of (((1-(6-amino-9H-purin-9-yl)propan-2-yloxy)methyl) (phenoxy) phosphoryloxy) methyl pivalate-prepared according to any one of the examples 1 to 10 (i.e. with no excipients) was prepared and compressed to a pellet using an automatic KBR press operating at a compression pressure of 2 tones for 2 minutes.
Similarly a tableting mixture (200 mg) comprising a solely TAF (i.e. with no excipients) was prepared and compressed to a pellet using an automatic KBR press operating at a compression pressure of 2 tones for 2 minutes.
A tableting mixture (200 mg) comprising solely TDF (i.e. with no excipients) was prepared and compressed to a pellet using an automatic KBR press operating at a compression pressure of 2 tones for 2 minutes.
In-vitro dissolution studies were performed on the 200 mg pellet in a LAB INDIA DISSO 2000.
The pellet was fixed in a PFTE holder, such that only the pellet surface came into contact with the dissolution medium. The PFTE loaded holder was placed in the dissolution vessel containing 900 ml of 0.1M of HCl having […] at 37±0.5° C. Two pellets were measured for each run of the design of the experiments. Stirring was performed with a paddle rotating at 75 rpm. […]
Dissolution Media: 0.01N HCl
Bath temperature: 37.5° C.
Sample Preparation: Pellets were prepared by pressing sample with 2 ton pressure for 2 min
Note: Aliquots were analysed on HPLC.
The concentration of (((1-(6-amino-9H-purin-9-yl)propan-2-yloxy)methyl) (phenoxy) phosphoryloxy) methyl pivalate was quantified by HPLC UV method at a maximum wavelength of 300 nm under the conditions as specified below:
Standard Preparation: 25 mg standard dissolved to 25 ml with dissolution medium. 5 ml of this solution diluted to 25 ml with dissolution medium. Further 5 ml of this solution was diluted to 10 ml with diluent.
Sample Preparation: 200 mg of Sample pellets were prepared and subjected to dissolution. 10 ml of Aliquot was removed from the dissolution basket at predetermined time intervals. 5 ml of these aliquot was diluted to 10 ml with Diluent.
200 mg of input API of fumarate salt of (((1-(6-amino-9H-purin-9-yl)propan-2-yloxy)methyl) (phenoxy) phosphoryloxy) methyl pivalate used for pellet preparation.
The percentage of (((1-(6-amino-9H-purin-9-yl)propan-2-yloxy)methyl) (phenoxy) phosphoryloxy) methyl pivalate (TD), Tenofovir Alafenamide (TAF) and Tenofovir Disoproxil (TDF) released from the respective fumarate salt tablet were plotted against time as shown in FIG. 19. The intrinsic dissolution rate was derived from the slope of this curve.
To measure the intrinsic dissolution of the Salts of (((1-(6-amino-9H-purin-9-yl)propan-2-yloxy)methyl) (phenoxy) phosphoryloxy) methyl pivalate, samples were measured to compare the influence of the different parameter settings. At appropriate time intervals, an automated sample collector removes aliquots from the dissolution medium for analysis. The time interval for sampling can vary, for example, from 5 to 120 minutes, depending on the properties of the drug and dissolution medium used. Suitable dissolution equipment for these operations includes LAB INDIA DISSO 2000. Bath temperature—37.5° C.
200 mg of input API of each fumarate, oxalate, phosphate, citrate, succinate and tartrate Salts of (((1-(6-amino-9H-purin-9-yl)propan-2-yloxy)methyl) (phenoxy) phosphoryloxy) methyl pivalate used for pellet preparation.
The percentage of (((1-(6-amino-9H-purin-9-yl)propan-2-yloxy)methyl) (phenoxy) phosphoryloxy) methyl pivalate released from the respective salts tablet were plotted against time as shown in FIG. 20. The intrinsic dissolution rate was derived from the slope of this curve.

[2] = Solubility in physiologically acceptable solvents (statement, no method described); conditions: in words
[3] = Hygroscopicity (statement, no method described); type: physicochemical; conditions: in words

SMILES: CC(Cn1cnc2c(N)ncnc21)OCP(=O)(OCOC(=O)C(C)(C)C)Oc1ccccc1.O=C(O)CC(O)(CC(=O)O)C(=O)O (stereo not shown) [Citrate, (((1-(6-amino-9H-purin-9-yl)propan-2-yloxy)methyl) (phenoxy)phosphoryloxy) methyl pivalate citric acid salt]
- % release of Compound (I) from the respective Salts ([1]; 5 min): 4%
- % release of Compound (I) from the respective Salts ([1]; 15 min): 12%
- % release of Compound (I) from the respective Salts ([1]; 30 min): 23%
- % release of Compound (I) from the respective Salts ([1]; 45 min): 33%
- % release of Compound (I) from the respective Salts ([1]; 60 min): 42%
- % release of Compound (I) from the respective Salts ([1]; 90 min): 63%
- % release of Compound (I) from the respective Salts ([1]; 120 min): 70%
- % release of Compound (I) from the respective Salts ([1]; 150 min): 66%
- % release of Compound (I) from the respective Salts ([1]; 180 min): 67%
- % release of Compound (I) from the respective Salts ([1]; 210 min): 66%
- % release of Compound (I) from the respective Salts ([1]; 240 min): 69%
- solubility in physiologically acceptable solvents [2]: readily soluble
- hygroscopicity [3]: not hygroscopic
